The results in this text go back to patent US10017504B2, “Piperidine isoxazole and isothiazole orexin receptor antagonists” (MERCK SHARP & DOHME CORP., priority 2014, dated 2018).

As a reminder, the IC50 is the concentration at which inhibition is half-maximal.

human orexin-2 receptor, sequence (O43614 whole entry): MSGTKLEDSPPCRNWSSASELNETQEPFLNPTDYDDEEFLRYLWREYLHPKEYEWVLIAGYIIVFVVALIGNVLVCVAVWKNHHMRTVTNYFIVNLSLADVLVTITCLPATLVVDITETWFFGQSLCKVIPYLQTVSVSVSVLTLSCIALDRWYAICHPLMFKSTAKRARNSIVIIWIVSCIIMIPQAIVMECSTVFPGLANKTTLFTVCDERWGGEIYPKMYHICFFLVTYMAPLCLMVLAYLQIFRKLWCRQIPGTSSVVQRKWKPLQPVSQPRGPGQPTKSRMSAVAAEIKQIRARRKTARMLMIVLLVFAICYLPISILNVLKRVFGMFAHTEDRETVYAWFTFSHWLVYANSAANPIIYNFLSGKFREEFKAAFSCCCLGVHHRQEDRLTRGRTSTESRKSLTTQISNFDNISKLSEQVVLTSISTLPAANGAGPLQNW

The target in the assay is human orexin-2 receptor (Homo sapiens (Human), UniProt O43614). In words: FLIPR Ca2+ Flux Assay, orexin-2 receptor. In kind it is cell-based. The following applies: CHO cells expressing the human orexin-2 receptor; agonist 70 pM Ala-6,12 human orexin-A; read-out: hOX2 FLIPR IC50. On the procedure:
In a typical experiment the OX1 and OX2 receptor antagonistic activity of the compounds of the present invention was determined in accordance with the following experimental method. For intracellular calcium measurements, Chinese hamster ovary (CHO) cells expressing the rat orexin-1 receptor or the human orexin-2 receptor, are grown in Iscove's modified DMEM containing 2 mM L-glutamine, […], 1% hypoxanthine-thymidine supplement, 100 U/ml penicillin, 100 μg/ml streptomycin and 10% heat-inactivated fetal calf serum (FCS). The cells are seeded at 20,000 cells/well into Becton-Dickinson black 384-well clear bottom sterile plates coated with poly-D-lysine. All reagents are from GIBCO-Invitrogen Corp. The seeded plates are incubated overnight at 37° C. and 5% CO2. Ala-6,12 human orexin-A as the agonist is prepared as a 1 mM stock solution in 1% bovine serum albumin (BSA) and diluted in assay buffer (HBSS containing 20 mM HEPES, 0.1% BSA and 2.5 mM probenecid, pH7.4) for use in the assay at a final concentration of 70 pM. Test compounds are prepared as 10 mM stock solution in DMSO, then diluted in 384-well plates, first in DMSO, then assay buffer. On the day of the assay, cells are washed 3 times with 100 μl assay buffer and then incubated for 60 min (37° C., 5% CO2) in 60 μl assay buffer containing 1 μM Fluo-4AM ester, 0.02% pluronic acid, and 1% BSA. The dye loading solution is then aspirated and cells are washed 3 times with 100 μl assay buffer. 30 μl of that same buffer is left in each well. Within the Fluorescent Imaging Plate Reader (FLIPR, Molecular Devices), test compounds are added to the plate in a volume of 25 μl, incubated for 5 min and finally 25 μl of agonist is added. Fluorescence is measured for each well at 1 second intervals for 5 minutes and the height of each fluorescence peak is compared to the height of the fluorescence peak induced by 70 pM Ala-6,12 orexin-A with buffer in place of antagonist. […] The intrinsic orexin receptor antagonist activity of a compound which may be used in the present invention may be determined by these assays.
For `C[C@@H]1CC[C@@H](c2cc(C(C)(O)C3CC3)on2)CN1C(=O)c1ccccc1-n1nccn1` (single isomer, unassigned) [Example 9], the 50% inhibitory concentration (IC50) turned out to be 25.8 nM.
Next, `C[C@@H]1CC[C@@H](c2cc(C(C)(O)C3CC3)on2)CN1C(=O)c1ccccc1-n1nccn1` (single isomer, unassigned) [Example 10]: 15.6 nM.
Next, `CC(C)C(C)(O)c1cc([C@@H]2CC[C@@H](C)N(C(=O)c3ccccc3-n3nccn3)C2)no1` (single isomer, unassigned) [Example 16]: 24.3 nM.
Next, `CC(C)C(C)(O)c1cc([C@@H]2CC[C@@H](C)N(C(=O)c3ccccc3-n3nccn3)C2)no1` (single isomer, unassigned) [Example 17]: 24.5 nM; `C[C@@H]1CC[C@@H](c2cc(C(C)(O)C3CC3)no2)CN1C(=O)c1ccccc1-n1nccn1` (single isomer, unassigned) [Example 52]: 47.3 nM; `C[C@@H]1CC[C@@H](c2cc(C(C)(O)C3CC3)no2)CN1C(=O)c1ccccc1-n1nccn1` (single isomer, unassigned) [Example 53]: 34.3 nM.
With `C[C@@H]1CC[C@@H](c2cc(C(C)(C)O)on2)CN1C(=O)c1ccccc1-n1nccn1` [Example 1, 2-{3-[(3R,6R)-6-Methyl-1-{[2-(2H-1,2,3-triazol-2-yl)phenyl]carbonyl}piperidin-3-yl]isoxazol-5-yl}propan-2-ol], the IC50 turned out to be 46.9 nM.
`C[C@@H]1CC[C@@H](c2cc(C(C)(C)O)on2)CN1C(=O)c1ccccc1C1(C#N)CC1` [Example 2, 1-(2-((2R,5R)-5-(5-(2-Hydroxypropan-2-yl)isoxazol-3-yl)-2-methylpiperidine-1-carbonyl)phenyl)cyclopropanecarbonitrile]: the IC50 was 104 nM.
Under `C[C@@H]1CC[C@@H](c2cc(C(C)(C)O)on2)CN1C(=O)c1cc(Cl)ccc1-n1nccn1` [Example 3, (5-Chloro-2-(2H-1,2,3-triazol-2-yl)phenyl)((2R,5R)-5-(5-(2-hydroxypropan-2-yl)isoxazol-3-yl)-2-methylpiperidin-1-yl)methanone] stands 1430 nM; under `C[C@@H]1CC[C@@H](c2cc(C(C)(C)O)on2)CN1C(=O)c1cc(F)ccc1-n1nccn1` [Example 4, (5-Fluoro-2-(2H-1,2,3-triazol-2-yl)phenyl)((2R,5R)-5-(5-(2-hydroxypropan-2-yl)isoxazol-3-yl)-2-methylpiperidin-1-yl)methanone], 278 nM; under `CCOc1ccccc1C(=O)N1C[C@H](c2cc(C(C)(C)O)on2)CC[C@H]1C` [Example 5, (2-Ethoxyphenyl)((2R,5R)-5-(5-(2-hydroxypropan-2-yl)isoxazol-3-yl)-2-methylpiperidin-1-yl)methanone], 1190 nM.
For the compound `CC(C)Oc1ncccc1C(=O)N1C[C@H](c2cc(C(C)(C)O)on2)CC[C@H]1C` [Example 6, ((2R,5R)-5-(5-(2-Hydroxypropan-2-yl)isoxazol-3-yl)-2-methylpiperidin-1-yl)(2-isopropoxypyridin-3-yl)methanone], the IC50 amounted to 1840 nM.
Next, `C[C@@H]1CC[C@@H](c2cc(C(C)(C)O)on2)CN1C(=O)c1cccnc1OCC(F)(F)F` [Example 7, ((2R,5R)-5-(5-(2-Hydroxypropan-2-yl)isoxazol-3-yl)-2-methylpiperidin-1-yl)(2-(2,2,2-trifluoroethoxy)pyridin-3-yl)methanone]: 227 nM; `CCC(O)(CC)c1cc([C@@H]2CC[C@@H](C)N(C(=O)c3ccccc3-n3nccn3)C2)no1` [Example 8, (2-(2H-1,2,3-triazol-2-yl)phenyl)((2R,5R)-5-(5-(3-hydroxypentan-3-yl)isoxazol-3-yl)-2-methylpiperidin-1-yl)methanone]: 552 nM.
Under `CC[C@@](C)(O)c1cc([C@@H]2CC[C@@H](C)N(C(=O)c3ccccc3-n3nccn3)C2)no1` [Example 11, (2-(2H-1,2,3-Triazol-2-yl)phenyl)((2R,5R)-5-(5-((R)-2-hydroxybutan-2-yl)isoxazol-3-yl)-2-methylpiperidin-1-yl)methanone] stands 41.4 nM; under `CC[C@](C)(O)c1cc([C@@H]2CC[C@@H](C)N(C(=O)c3ccccc3-n3nccn3)C2)no1` [Example 12, (2-(2H-1,2,3-triazol-2-yl)phenyl)((2R,5R)-5-(5-((S)-2-hydroxybutan-2-yl)isoxazol-3-yl)-2-methylpiperidin-1-yl)methanone], 15 nM; under `C[C@@H]1CC[C@@H](c2cc(C3(O)CCC3)on2)CN1C(=O)c1ccccc1-n1nccn1` [Example 13, 1-{3-[(3R,6R)-6-Methyl-1-{[2-(2H-1,2,3-triazol-2-yl)phenyl]carbonyl}piperidin-3-yl]isoxazol-5-yl}cyclobutanol], 635 nM.
For the compound `C[C@@H]1CC[C@@H](c2cc([C@](C)(O)C(F)F)on2)CN1C(=O)c1ccccc1-n1nccn1` [Example 18, (2S)-1,1-Difluoro-2-{3-[(3R,6R)-6-methyl-1-{[2-(2H-1,2,3-triazol-2-yl)phenyl]carbonyl}piperidin-3-yl]isoxazol-5-yl}propan-2-ol], the IC50 was 92 nM.
Next, `COC(C)(C)c1cc([C@@H]2CC[C@@H](C)N(C(=O)c3ccccc3-n3nccn3)C2)no1` [Example 19, (2R,5R)-5-[5-(1-methoxy-1-methylethyl)isoxazol-3-yl]-2-methyl-1-{[2-(2H-1,2,3-triazol-2-yl)phenyl]carbonyl}piperidine]: 27.3 nM; `C[C@@H]1CC[C@@H](c2cc(C(C)(C)O)no2)CN1C(=O)c1ccccc1-n1nccn1` [Example 20, 2-{5-[(3R,6R)-6-Methyl-1-{[2-(2H-1,2,3-triazol-2-yl)phenyl]carbonyl}piperidin-3-yl]isoxazol-3-yl}propan-2-ol]: 30.3 nM.
For `COCc1ccccc1C(=O)N1C[C@H](c2cc(C(C)(C)O)no2)CC[C@H]1C` [Example 21, 2-{5-[(3R,6R)-1-{[2-(Methoxymethyl)phenyl]carbonyl}-6-methylpiperidin-3-yl]isoxazol-3-yl}propan-2-ol], the 50% inhibitory concentration (IC50) is 1120 nM.
Under `C[C@@H]1CC[C@@H](c2cc(C(C)(C)O)no2)CN1C(=O)c1ccccc1-c1ncccn1` [Example 22, 2-(5-{(3R,6R)-6-Methyl-1-[(2-pyrimidin-2-ylphenyl)carbonyl]piperidin-3-yl}isoxazol-3-yl)propan-2-ol] stands 51.4 nM; under `CCOc1ncccc1C(=O)N1C[C@H](c2cc(C(C)(C)O)no2)CC[C@H]1C` [Example 23, 2-(5-{(3R,6R)-1-[(2-Ethoxypyridin-3-yl)carbonyl]-6-methylpiperidin-3-yl}isoxazol-3-yl)propan-2-ol], 268 nM; under `C[C@@H]1CC[C@@H](c2cc(C(C)(C)O)no2)CN1C(=O)c1cc(F)ccc1-n1nccn1` [Example 24, 2-{5-[(3R,6R)-1-{[5-Fluoro-2-(2H-1,2,3-triazol-2-yl)phenyl]carbonyl}-6-methylpiperidin-3-yl]isoxazol-3-yl}propan-2-ol], 215 nM.
Regarding `C[C@@H]1CC[C@@H](c2cc(C(C)(C)O)no2)CN1C(=O)c1nccnc1-n1cccn1` [Example 25, 2-{5-[(3R,6R)-6-methyl-1-{[3-(1H-pyrazol-1-yl)pyrazin-2-yl]carbonyl}piperidin-3-yl]isoxazol-3-yl}propan-2-ol], the concentration for half-maximal inhibition (IC50) is 799 nM.
Next, `C[C@@H]1CC[C@@H](c2cc(C(C)(C)O)no2)CN1C(=O)c1ccccc1-c1ccccc1` [Example 26, 2-{5-[(3R,6R)-1-(Biphenyl-2-ylcarbonyl)-6-methylpiperidin-3-yl]isoxazol-3-yl}propan-2-ol]: 22.9 nM; `C[C@@H]1CC[C@@H](c2cc(C(C)(C)O)no2)CN1C(=O)c1cc(Cl)ccc1-n1nccn1` [Example 27, 2-{5-[(3R,6R)-1-{[5-Chloro-2-(2H-1,2,3-triazol-2-yl)phenyl]carbonyl}-6-methylpiperidin-3-yl]isoxazol-3-yl}propan-2-ol]: 604 nM.
Next, `C[C@@H]1CC[C@@H](c2cc(C(C)(C)O)no2)CN1C(=O)c1nccnc1-c1ccccn1` [Example 28, 2-(5-{(3R,6R)-6-Methyl-1-[(3-pyridin-2-ylpyrazin-2-yl)carbonyl]piperidin-3-yl}isoxazol-3-yl)propan-2-ol]: 1420 nM; `C[C@@H]1CC[C@@H](c2cc(C(C)(C)O)no2)CN1C(=O)c1ccccc1C1(C#N)CC1` [Example 29, 1-[2-({(2R,5R)-5-[3-(1-Hydroxy-1-methylethyl)isoxazol-5-yl]-2-methylpiperidin-1-yl}carbonyl)phenyl]cyclopropanecarbonitrile]: 8.8 nM.
With `COC(=O)c1ccccc1C(=O)N1C[C@H](c2cc(C(C)(C)O)no2)CC[C@H]1C` [Example 30, Methyl 2-({(2R,5R)-5-[3-(1-hydroxy-1-methylethyl)isoxazol-5-yl]-2-methylpiperidin-1-yl}carbonyl)benzoate], the IC50 turned out to be 251 nM.
